Laboratory results: ChEMBL document CHEMBL5360642, “Assimiloside A, a Glycolipid with Immunomodulatory Activity from the Northwestern Pacific Marine Sponge Hymeniacidon assimilis” (2023)
Calls of active or inactive are those of the source. No cut-off for these calls is given here.

Key:
RAW264.7 [1] = assay: Induction of ROS production in mouse RAW264.7 cells assessed as increase in intracellular ROS formation at 1 uM incubated for 3 hrs by DCFH2-DA staining based assay relative to control; assay type: functional, cell-based
RAW264.7 [2] = assay: Induction of ROS production in mouse RAW264.7 cells assessed as increase in intracellular ROS formation at 0.01 to 0.1 uM incubated for 3 hrs by DCFH2-DA staining based assay relative to control; assay type: functional; settings: dose 0.01-0.1 µM
RAW264.7 [3] = assay: Immunomodulatory activity in mouse RAW264.7 cells assessed as stimulation of lysosomal activity at 0.01 to 10 uM incubated for 2 hrs by acridine orange based fluorescence microplate reader analysis relative to control; assay type: functional; settings: dose 0.01-10 µM
RAW264.7 [4] = assay: Induction of ROS production in mouse RAW264.7 cells assessed as increase in intracellular ROS formation at 10 uM incubated for 3 hrs by DCFH2-DA staining based assay relative to control; assay type: functional

CC[C@@H](O)CCCCCCCCCC(CCCCCCCCCCC[C@@H]1CCC(=O)O1)O[C@@H]1O[C@H](CO[C@@H]2OC[C@@H](O)[C@H](O)[C@H]2O)[C@@H](O)[C@H](O)[C@H]1O[C@@H]1OC[C@@H](O)[C@H](O)[C@H]1O (some centres undefined)
Activity (RAW264.7 [1]): inactive | Activity (RAW264.7 [2]): 15% | Activity (RAW264.7 [3]): 25% | Activity (RAW264.7 [4]): 15%
